Key:
Format in all cases: in vivo
[1] = test system: Tobacco Budworm [Heliothis virescens (Fabricius)] eggs; assay: Tobacco budworm eggs (TBW-E); details: percent in solution; 2-day old eggs
Outline: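 Step 1: dip 2-day old egg patches in acetone test solutions (top concentration 0.1%). Step 2: hold in dishes with rearing medium at 78° F. Step 3: record mortality after control hatch and feeding.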

[2] = test system: Black Bean Aphid [Aphis fabae (Scop.)]; assay: Black bean aphid spray test on nasturtium (BBA), 48 hours; details: percent of test compound in sprayed solution
Outline: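 LC50, given as percent test compound in the sprayed liquid, was calculated from dosage-mortality curves using concentrations from 0.05% downward. Sprays in 50:50 acetone-water went to runoff on ~5 cm nasturtiums carrying 25-50 aphids of mixed ages, one day after infestation. Deaths were counted 48 h later under greenhouse conditions.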

[3] = test system: Maize weevil [Sitophilus zeamais (Motschulsky)]; assay: Maize weevil on dipped corn seeds (MW), 48 hours; details: percent in solution, adult weevils
Procedure: The compounds in Tables 1 and 2 above were tested for insecticidal activity using the following testing procedures. LC50 values, based on the results of these tests and calculated according to dosage-mortality curves, are expressed in Table 3.
Maize weevil [Sitophilus zeamais (Motschulsky)]:
Test compounds were diluted in a 50:50 acetone:water solution. Four corn seeds [Zea mays (L.)] which had been immersed in test solutions for 2-3 seconds and allowed to dry were placed in containers together with 10 adult weevils. The containers were covered and kept at a temperature of about 25° C. Mortality was recorded after 48 hours. Test concentrations ranged from 0.01% down to that at which 50% mortality occurred. The LC50 values are expressed below in Table 3 under the heading "MW" in terms of percent of the test compound in solution.

[4] = test system: Housefly [Musca domestica]; assay: Housefly contact mortality in dishes (HF), 48 hours; details: μg of test compound per 25 female flies
Outline: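 Residual contact test: acetone dilution, 0.01% peanut oil spreader, solvent evaporated; 25 ♀ flies (1-2 d old) per cage; sugar-water plug; 48 h mortality read. LC50 in μg/25 female flies, from dose-mortality curves; top dose 100 μg/25 flies.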

[5] = test system: Cabbage Looper [Trichoplusia ni (Hubner)]; assay: Cabbage looper leaf dip (CL), 3-5 days; details: percent in solution, second-instar larvae
Outline: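 Squash cotyledons dipped in test solution (acetone-water 50-50, ≤0.1%), dried, offered to 5 second-instar larvae; mortality after 3-5 days gives LC50.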

| SMILES | LC50 TBW E (eggs) [1] [%] | LC50 BBA [2] [%] | LC50 MW [3] [%] | LC50 HF [4] [µg] | LC50 CL [5] [%] |
| --- | --- | --- | --- | --- | --- |
| CC(C)C(=Nc1ccc(F)c(Br)c1)OCc1cccc(Oc2ccccc2)n1 [Compound 558] | > 0.1 | 0.0012 | > 0.01 | < 100 | 0.00045 |
| CC(C)C(=Nc1ccc(OCC(F)(F)F)c(Cl)c1)OCc1cccc(Oc2ccccc2)c1 [Compound 425] | > 0.1 | 0.0035 | > 0.01 | > 100 | 0.00075 |
| CC(C)C(=Nc1ccc(F)c(F)c1)OCc1cccc(Oc2ccc(Cl)cc2)n1 [Compound 559] | 0.017 | 0.0035 | > 0.01 | < 100 | 0.00027 |
| CC(C)C(=Nc1ccc(OCC(F)(F)F)c(Cl)c1)OCc1cccc(Oc2ccc(Cl)cc2)c1 [Compound 421] | < 0.1 | > 0.05 | > 0.01 | > 100 | 0.002 |
| CC(C)C(=Nc1cccc(Br)c1)OCc1cccc(Oc2ccc(Cl)cc2)n1 [Compound 557] | > 0.1 | 0.0015 | > 0.01 | < 100 | 0.0004 |
| CC(C)C(=Nc1ccc(F)c(Cl)c1)OCc1ccnc(Oc2ccccc2)c1 [Compound 510] | > 0.1 | 0.05 | > 0.01 | 54 | 0.017 |
| CC(C)C(=Nc1ccc(I)c(Cl)c1)OCc1cccc(Oc2ccc(Cl)cc2)n1 [Compound 471] | 0.018 | 0.001 | > 0.01 | < 100 | 0.00018 |
| CC(C)C(=Nc1cccc(C(F)(F)F)c1)OCc1cc(Oc2ccc(Cl)cc2)ccn1 [Compound 509] | > 0.1 | > 0.05 | > 0.01 | 79 | 0.0075 |
| CC(C)C(=Nc1ccc(Br)cc1)OCc1coc(Cc2ccccc2)c1 [Compound 478] | > 0.1 |  | > 0.01 | 15 | 0.0037 |
| CC(C)C(=Nc1ccc2c(c1)OCO2)OCc1coc(Cc2ccccc2)c1 [Compound 483] | 0.05 |  | > 0.01 | 6 | 0.001 |
| CC(C)C(=Nc1c(F)c(F)cc(F)c1F)OCc1cccc(Oc2ccc(F)cc2)c1 [Compound 304] | > 0.1 |  | > 0.01 | > 100 | 0.0024 |
| CC(C)C(=Nc1ccc(F)c(I)c1)OCc1cccc(Oc2ccc(F)cc2)c1 [Compound 449] | 0.025 |  | 0.0075 | 13 | 0.0001 |
| Fc1ccc(COC(=Nc2ccc(C(F)(F)F)cc2)C2CC2)cc1Oc1ccc(Cl)cc1 [Compound 444] |  | 0.0006 | > 0.01 | > 100 | 0.00015 |
| CC(C)C(=Nc1cccc(OC(F)(F)F)c1)OCc1ccc(F)c(Oc2ccc(Cl)cc2)c1 [Compound 436] | < 0.1 | 0.0006 | > 0.01 | < 100 |  |
| CC(C)C(=Nc1ccc(F)c(Br)c1)OCc1ccc(F)c(Oc2ccccc2)c1 [Compound 299] | 0.017 |  | > 0.01 | 8 | 0.0005 |
| CC(C)C(=Nc1ccc(C(C)(C)C)cc1)OCc1ccc(F)c(Oc2ccc(Cl)cc2)c1 [Compound 301] | > 0.1 |  | > 0.01 | > 100 | 0.008 |
| CC(C)C(=Nc1cccc(C(F)(F)F)c1)OCc1ccnc(Oc2ccc(F)cc2)c1 [Compound 508] | > 0.1 |  | > 0.01 | > 100 | 0.013 |
| Fc1ccc(Oc2cccc(COC(=Nc3cccc(C(F)(F)F)c3)C3CC3)c2)cc1 [Compound 294] | > 0.1 |  | > 0.01 | > 100 | 0.017 |
| CC(Br)C(=Nc1ccc2c(c1)OCO2)OCc1cccc(Oc2ccccc2)c1 (stereo not drawn) [Compound 306] | 0.1 |  | > 0.01 | > 100 | 0.005 |
| Fc1ccc(Oc2cccc(COC(=Nc3ccc(F)c(Cl)c3)C3CC3)c2)cc1 [Compound 116] |  |  | > 0.01 | 15 | 0.00025 |
| CC(C)C(=Nc1ccc([N+](=O)[O-])c(C(F)(F)F)c1)OCc1cccc(Oc2ccccc2)c1 [Compound 307] | 0.08 |  | > 0.01 | > 100 | 0.002 |
| CC(C)C(=Nc1cccc([N+](=O)[O-])c1)OCc1cccc(Oc2ccccc2)c1 [Compound 302] | > 0.1 |  | > 0.01 | 15 | 0.003 |
| CC(C)C(=Nc1ccc(F)cc1F)OCc1coc(Cc2ccccc2)c1 [Compound 486] | > 0.1 |  | > 0.01 | 15 | > 0.1 |
| CC(C)C(=Nc1cccc(C(F)(F)F)c1)OCc1coc(Cc2ccccc2)c1 [Compound 482] | > 0.1 |  | > 0.01 | 36 | 0.01 |
| CC(C)C(=Nc1cccc(C(F)(F)F)c1)OCc1cccc(Oc2ccc(Cl)cc2)n1 [Compound 477] | > 0.1 |  | 0.0076 | 20 | 0.0003 |
| CC(C)C(=Nc1cc(F)c(Cl)cc1Cl)OCc1ccc(F)c(Oc2ccc(F)cc2)c1 [Compound 292] | 0.05 |  | > 0.01 | 41 | 0.00075 |
| Fc1ccc(COC(=Nc2ccc(C(F)(F)F)cc2)C2CC2)cc1Oc1ccccc1 [Compound 443] |  | 0.0003 | < 0.01 | < 100 | 0.00015 |
| CC(C)C(=Nc1ccc(F)c(Cl)c1)OCc1ccc(Cl)c(Oc2ccc(F)cc2)c1 [Compound 448] | 0.03 | > 0.05 |  | 16 | 0.003 |
| CC(C)c1ccc(N=C(OCc2cccc(Oc3ccccc3)c2)C(C)(C)C)cc1 [Compound 165] | > 0.1 | > 0.05 |  | > 100 | 0.007 |

Source: patent publication US5045566A, “Novel imidate insecticides” (ICI Americas Inc., priority 1989, dated 1991)
